Results on five compounds are retold here after patent publication US10517867B2, “Posaconazole derivative, pharmaceutical composition and use thereof” (priority 2016, dated 2019).

Structures are written as SMILES. Like-named read-outs stand apart in the source and are kept apart here. A value given as a limit tells only on which side of the number the result lay.

The nature of series [1]: In vitro metabolic stability in human plasma. It is filed as in vitro ADME. As to conditions: human, plasma, 37° C., 10 μM compound, read-out: Human plasma T1/2. The protocol:
(§1) This example detects the metabolic stability of the compounds of the present disclosure in human (rat) plasma and intestinal S9 in vitro. In a human (rat) plasma reaction system, 990 μl of human (rat) plasma was taken and incubated at 37° C. for 5 minutes, and 10 μl of the compound mother liquor was used to initiate the reaction. In the human (rat) intestinal S9 stability experiment, in the order shown in Table 2 below, the samples were added and incubated in a 37° C. water bath to initiate the reaction, each sample performed in triplicates. Respectively, at 1 minute, 2 minutes, 5 minutes, 15 minutes, 30 minutes after the reaction began, 100 μL of each was taken and added to a centrifuge tube containing 400 μL of 0° C. precooled internal standard working solution. The reaction was terminated, vortexed and mixed for 1 minute, centrifuged at 10000×g for 10 minutes in a 4° C. precooled high-speed centrifuge, and the supernatant was detected with HPLC. The test results were used to calculate metabolic half-life using WinNonlin (version 6.2 Pharsight, Mountain View, Calif.) with a non-compartmental model.
(§2) Compound stock solution concentration: 1 mM
(§3) Reaction matrix: human (rat) plasma, intestinal S9 purchased from Research Institute for Liver Diseases (Shanghai) Co., Ltd.

Series [2] is described as follows: In vitro metabolic stability in human intestine S9. It is filed as in vitro ADME. Conditions: human, 37° C., 10 μM compound, 1 mg/mL S9, NADPH regeneration system, read-out: Human intestine S9 T1/2. The protocol: as §1, §2, §3
Series [3] is described as follows: In vitro metabolic stability in rat plasma. It is filed as in vitro ADME. As to conditions: rat, plasma, 37° C., 10 μM compound, read-out: Rat plasma T1/2. The protocol: as §1, §2, §3
Series [4] is described as follows: In vitro metabolic stability in rat intestine S9. Type of series: in vitro ADME. As to conditions: rat, 37° C., 10 μM compound, 1 mg/mL S9, NADPH regeneration system, read-out: Rat intestine S9 T1/2. As to the method:
as §1, §2, §3

The nature of series [5]: Solid stability test (stability chamber, HPLC total impurity). Type of series: physicochemical.
The nature of series [6]: Determination of solubility in deionized water (HPLC, external standard). As to conditions: 25 °C, water, thermodynamic from solid.
The subject of series [7] is Candida albicans ATCC10231. Put plainly: Systemic fungal infection in mice, intravenous administration. Type of series: in vivo, ICR mice. As to the method:
(§4) ICR mice, weighing 18-22 g, male, provided by Hubei Experimental Animal Center.
(§5) Prior to the experiment, a small amount of Candida albicans was picked from an SDA (sacharomyces agar, the same below) medium kept at 4° C. with an inoculation loop and inoculated into 1 ml YPD (Yeast Extract Peptone Dextrose Medium) culture medium, cultured at 30° C. with 200 rpm shaking and activated for 16 hours, so that the fungus was in the late stage of exponential growth. Counted with a hemocytometer and the fungal solution concentration was adjusted to 1×10^3-5×10^3 CFU/ml with RPMI1640 medium (Roswell Park Memorial Institute 1640, the same below). Monoclonal Candida albicans on SDA plate was picked up, inoculated into 1 ml YPD (Yeast Extract Peptone Dextrose Medium, the same below) culture medium, cultured at 35° C., 200 rpm for 16 hours until late exponential growth phase. Candida albicans was inoculated into fresh medium for culturing for 6 hours at 1%, centrifuged at 1000×g for 5 minutes, washed with physiological saline three times until the supernatant was colorless, counted with a hemocytometer, and the cell concentration was adjusted to 5×10^6 cells/ml. A tail vein injection of 0.1 ml/10 g caused a systemic fungal infection in mice. […] A total of 7 days of observations were performed. All dead mice were burned with ethanol.

The test system of series [8] is Candida albicans ATCC10231. In words: Systemic fungal infection in mice, intragastric administration. It is filed as in vivo, ICR mice. As to conditions: Candida albicans, ATCC10231, po. The protocol:
as §4
as §5, with “SDA” for “SDA (sacharomyces agar, the same below)”, “YPD” for “YPD (Yeast Extract Peptone Dextrose Medium)”, “1×10^3 to 5×10^3” for “1×10^3-5×10^3”, “medium.” for “medium (Roswell Park Memorial Institute 1640, the same below).”

Setting [9] is: 24 h, read-out: survival rate of mice, day 1.
The mark [10] stands for this setting: 48 h, read-out: survival rate of mice, day 2.
Where [11] appears, read: 72 h, read-out: survival rate of mice, day 3.
Setting [12] is: 96 h, read-out: survival rate of mice, day 4.
The mark [13] stands for this setting: 120 h, read-out: survival rate of mice, day 5.
Where [14] appears, read: 144 h, read-out: survival rate of mice, day 6.
Where [15] appears, read: 168 h, read-out: survival rate of mice, day 7.
Where [16] appears, read: 24 h, read-out: survival rate of mice, day 1, 20 mg/kg intragastric once daily for 5 days, day 1.
Where [17] appears, read: 48 h, read-out: survival rate of mice, day 2, 20 mg/kg intragastric once daily for 5 days, day 2.
The mark [18] stands for this setting: 72 h, read-out: survival rate of mice, day 3, 20 mg/kg intragastric once daily for 5 days, day 3.
The mark [19] stands for this setting: 96 h, read-out: survival rate of mice, day 4, 20 mg/kg intragastric once daily for 5 days, day 4.
Setting [20] is: 120 h, read-out: survival rate of mice, day 5, 20 mg/kg intragastric once daily for 5 days, day 5.
The mark [21] stands for this setting: 144 h, read-out: survival rate of mice, day 6, 20 mg/kg intragastric once daily for 5 days, day 6.
The mark [22] stands for this setting: 168 h, read-out: survival rate of mice, day 7, 20 mg/kg intragastric once daily for 5 days, day 7.

Take `CC[C@@H]([C@H](C)O)n1ncn(-c2ccc(N3CCN(c4ccc(OC[C@@H]5CO[C@@](Cn6c[n+](C(C)OC(=O)N(C)c7ncccc7COC(=O)[C@@H](N)Cc7ccc(O)cc7)cn6)(c6ccc(F)cc6F)C5)cc4)CC3)cc2)c1=O` (some centres unmarked) [ST0027]: the half-life at 10 µM was 20.4 ± 3.65 min in series [1]; 45.9 ± 8.12 min in series [2] (intestinal S9); 15.9 ± 7.85 min in series [3]; 39.5 ± 6.69 min in series [4] (intestinal S9, pH 7.4). The “Total impurity increment in 30 days” value in series [5] is on record as 0.75%. This compound also gave a solubility at 30 min in series [6] of over 50 mg/mL.
With `CC[C@@H](C(C)OC(=O)OCOC(=O)CCCCCCOP(=O)([O-])[O-])n1ncn(-c2ccc(N3CCN(c4ccc(OC[C@@H]5CO[C@@](Cn6cncn6)(c6ccc(F)cc6F)C5)cc4)CC3)cc2)c1=O.[Na+].[Na+]` (some centres unmarked) [ST0074], the half-life at 10 µM in series [1] came to 0.86 ± 0.07 min; in series [2] it was 20 ± 4.66 min; in series [3], 1.26 ± 0.54 min; in series [4] (pH 7.4) it was 18.2 ± 5.66 min. Further, the responders at 20 mg/kg in series [7] (setting [9]) turned out to be 100%; in series [7] (setting [10]) it was 100%; in series [7] (setting [11]) it was 90%; in series [7] (setting [12]), 90%; in series [7] (setting [13]), 90%; in series [7] (setting [14]), 90%. Further, the responders at 20 mg/kg in series [7] (setting [15]) amounted to 90%; in series [8] (setting [16]), 100%; in series [8] (setting [17]) it was 100%; in series [8] (setting [18]) it was 90%; in series [8] (setting [19]), 80%; in series [8] (setting [20]), 80%. Also, the responders at 20 mg/kg in series [8] (setting [21]) was 80%; in series [8] (setting [22]) it was 70%. Moreover, in series [6], the solubility at 30 min was over 50 mg/mL.
On to `CC[C@@H]([C@H](C)O)n1ncn(-c2ccc(N3CCN(c4ccc(OC[C@@H]5CO[C@@](Cn6c[n+](C(C)OC(=O)N(C)c7ncccc7COC(=O)CN(C)C)cn6)(c6ccc(F)cc6F)C5)cc4)CC3)cc2)c1=O` (some centres unmarked) [ST0045], for which the half-life at 10 µM was determined as 15.2 ± 3.99 min in series [1]; 33.2 ± 4.23 min in series [2] (intestinal S9); 11.9 ± 2.96 min in series [3]; 26 ± 5.69 min in series [4] (intestinal S9, pH 7.4). Moreover, in series [5], the “Total impurity increment in 30 days” value came out at 1.68%. Further, in series [6], the solubility at 30 min is over 50 mg/mL.
Consider `CC[C@@H]([C@H](C)OC(=O)OC(C)OC(=O)CCCCCOP(=O)([O-])[O-])n1ncn(-c2ccc(N3CCN(c4ccc(OC[C@@H]5CO[C@@](Cn6cncn6)(c6ccc(F)cc6F)C5)cc4)CC3)cc2)c1=O.[Na+].[Na+]` (some centres unmarked) [ST0063], for which the half-life at 10 µM in series [1] was found to be 0.85 ± 0.45 min; in series [2], 16.3 ± 2.12 min; in series [3], 1.21 ± 0.75 min; in series [4] (pH 7.4) it was 19.4 ± 5.69 min. Besides, the responders at 20 mg/kg in series [7] (setting [9]) turned out to be 100%; in series [7] (setting [10]), 100%; in series [7] (setting [11]), 90%; in series [7] (setting [12]), 90%; in series [7] (setting [13]), 90%; in series [7] (setting [14]), 90%. For the same compound, the responders at 20 mg/kg came to 90% in series [7] (setting [15]); 90% in series [8] (setting [16]); 90% in series [8] (setting [17]); 80% in series [8] (setting [18]); 80% in series [8] (setting [19]); 80% in series [8] (setting [20]). Further, the responders at 20 mg/kg in series [8] (setting [21]) and in series [8] (setting [22]) was 80% in each case. The compound also gave a solubility at 30 min in series [6] of over 50 mg/mL.
As for `CC[C@@H]([C@H](C)OC(=O)OC(C)OC(=O)CNC)n1ncn(-c2ccc(N3CCN(c4ccc(OC[C@@H]5CO[C@@](Cn6cncn6)(c6ccc(F)cc6F)C5)cc4)CC3)cc2)c1=O.Cl` (some centres unmarked) [ST0053], the half-life at 10 µM in series [1] came out at 19.9 ± 3.01 min; in series [2] (intestinal S9) it was 50.2 ± 5.15 min; in series [3], 21.2 ± 4.52 min; in series [4] (intestinal S9, pH 7.4), 48.2 ± 6.85 min. In addition, in series [5] (solid, packaged, 25° C.±2° C., relative humidity 60%±2%), the “Total impurity increment in 30 days” value is listed as 0.85%. The responders at 20 mg/kg in series [8] (24 h, 20 mg/kg intragastric once daily for 5 days, day 1, read-out: survival rate of mice, day 1) came out at 90%; in series [8] (48 h, 20 mg/kg intragastric once daily for 5 days, day 2, read-out: survival rate of mice, day 2) it was 80%; in series [8] (72 h, 20 mg/kg intragastric once daily for 5 days, day 3, read-out: survival rate of mice, day 3), 70%; in series [8] (96 h, 20 mg/kg intragastric once daily for 5 days, day 4, read-out: survival rate of mice, day 4) it was 60%; in series [8] (120 h, 20 mg/kg intragastric once daily for 5 days, day 5, read-out: survival rate of mice, day 5), 60%; in series [8] (144 h, 20 mg/kg intragastric once daily for 5 days, day 6, read-out: survival rate of mice, day 6) it was 60%. In series [8] (168 h, 20 mg/kg intragastric once daily for 5 days, day 7, read-out: survival rate of mice, day 7), the responders at 20 mg/kg amounted to 60%.
